The values below come from patent US20260285853A1, “COMPOUNDS AND METHODS FOR MODULATING SPLICING” (REMIX THERAPEUTICS INC., priority 2023, published 2026).

One may read the AC50 as the midpoint of the concentration-response curve, whichever way the signal moves. What is called IC50 is the point on the concentration scale where inhibition reaches its midpoint. The term GI50 denotes the concentration giving 50% growth inhibition.

Common to all, as to type: cell-based
For experiment [1], the system named is HTT mRNA. Nature of the experiment: Splicing RT-qPCR assay (THP), Table 2A. To be noted: Table 2A, THP; for AC50: HTT alternative junction (AJ) mRNA, read-out: HTT AJ (AC50, increase in alternative junction mRNA); for IC50: HTT canonical junction (CJ) mRNA, read-out: HTT CJ (IC50, decrease in canonical junction mRNA).
The subject of experiment [2] is SH-SY5Y (human neuroblastoma) cells. Nature of the experiment: Cell viability, Cell Titer Glo 2.0 assay. To be noted: read-out: Viability SHSY5Y.3 GI50. In short, it runs like this:
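Following a 72 h incubation (37 °C, 5% CO2, 0.1% DMSO final), compound toxicity toward SH-SY5Y cells was quantified by CellTiter-Glo 2.0.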
For orientation: In ATP-based viability assays light output follows the ATP content of the culture.

The test system of experiment [3] is HTT mRNA. Nature of the experiment: Gene panel canonical junction qPCR assay, decrease in CJ mRNA, Table 3. The settings on record: decrease in CJ mRNA levels, canonical junction qPCR, gene panel. In short, it runs like this:
(§1)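 Eleven-point dose responses from 10 uM final, 24 h, DMSO ≤0.25%, in A673 or K562 cells. Relative quantification by 2^(−ΔΔCt) against housekeeper and vehicle was converted to percent response over fixed ΔCt windows and fitted to yield IC50.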
For orientation: In qPCR the cycle at which signal appears reflects the starting amount.

Experiment [4] deals with MYB mRNA. The description is as above. To be noted: decrease in CJ mRNA levels, canonical junction qPCR, gene panel. A digest of the protocol: as §1
Experiment [5] deals with MYB mRNA. In words: Splicing RT-qPCR assay (THP), Table 2A. The settings on record: Table 2A, THP; for AC50: MYB alternative junction (AJ) mRNA, read-out: MYB AJ (AC50, increase in alternative junction mRNA); for IC50: MYB canonical junction (CJ) mRNA, read-out: MYB CJ (IC50, decrease in canonical junction mRNA).

Each structure is given as a SMILES string. Bounds are passed on as bounds.

For the compound `COc1nc2c(C(=O)Nc3cc(F)c4nn(C)cc4c3)ccc(N3CCN[C@@H](CO)C3)c2s1` [Compound 743, (R)—N-(7-fluoro-2-methyl-2H-indazol-5-yl)-7-(3-(hydroxymethyl)piperazin-1-yl)-2-methoxybenzo[d]thiazole-4-carboxamide 2,2,2-trifluoroacetate], the AC50 in the experiment on HTT mRNA [1] and in the experiment on MYB mRNA [5] was under 100 nM in each case. Further, the IC50 with HTT mRNA [1], in the experiment with HTT mRNA [3], in the experiment on MYB mRNA [4] and with MYB mRNA [5] was under 100 nM in each case. Further, in experiment [2], the GI50 was under 100 nM.

With `COc1nc2c(C(=O)Nc3cc(F)c4nn(C)cc4c3)ccc(N3C[C@@H](C)N(C)[C@@H](C)C3)c2s1` [Compound 744, N-(7-fluoro-2-methyl-indazol-5-yl)-2-methoxy-7-[(3R,5S)-3,4,5-trimethylpiperazin-1-yl]-1,3-benzothiazole-4-carboxamide], the figures for the AC50 in the experiment with HTT mRNA [1] and with MYB mRNA [5] were 100 to 1000 nM and under 100 nM, respectively. The half-maximal inhibitory concentration (IC50) in the experiment with HTT mRNA [1] was 1000 to 10000 nM; in the experiment with HTT mRNA [3], 1000 to 10000 nM; with MYB mRNA [4], under 100 nM; in the experiment with MYB mRNA [5] it was under 100 nM. In addition, the GI50 in experiment [2] lay within 100 to 1000 nM.

Turning to `COc1nc2c(C(=O)Nc3cc(F)c4nn(C)cc4c3)ccc(N3CCN4CCC[C@H]4C3)c2s1` [Compound 745, 7-[(8aS)-3,4,6,7,8,8a-hexahydro-1H-pyrrolo[1,2-a]pyrazin-2-yl]-N-(7-fluoro-2-methyl-indazol-5-yl)-2-methoxy-1,3-benzothiazole-4-carboxamide], the half-maximal activity concentration (AC50) in the experiment with HTT mRNA [1] is 100 to 1000 nM; in the experiment on MYB mRNA [5], under 100 nM. Further, the concentration for half-maximal inhibition (IC50) is 100 to 1000 nM in the experiment with HTT mRNA [1], 100 to 1000 nM in the experiment on HTT mRNA [3], under 100 nM in the experiment on MYB mRNA [4] and under 100 nM in the experiment with MYB mRNA [5]. Also, in experiment [2], the concentration for 50% growth inhibition (GI50) lay in the range of 100 to 1000 nM.

With `COc1nc2c(C(=O)Nc3cc(F)c4nn(C)cc4c3)ccc(N3CCN4CCCC[C@H]4C3)c2s1` [Compound 746], the values for the AC50 in the experiment with HTT mRNA [1] and in the experiment with MYB mRNA [5] were 100 to 1000 nM and under 100 nM, respectively. Moreover, the IC50 in the experiment with HTT mRNA [1], in the experiment with HTT mRNA [3], with MYB mRNA [4] and in the experiment on MYB mRNA [5] was 100 to 1000 nM throughout. The 50% growth inhibitory concentration (GI50) in experiment [2] was 100 to 1000 nM.

As for `CN[C@@H]1CCN(c2ccc(C(=O)Nc3cc(F)c4nn(C)cc4c3)c3nc(OC)sc23)C1` [Compound 747, N-(7-fluoro-2-methyl-indazol-5-yl)-2-methoxy-7-[(3R)-3-(methylamino)pyrrolidin-1-yl]-1,3-benzothiazole-4-carboxamide], the results for the half-maximal activity concentration (AC50) in the experiment on HTT mRNA [1] and in the experiment on MYB mRNA [5] were 100 to 1000 nM and under 100 nM, respectively. Moreover, the IC50 in the experiment with HTT mRNA [1] is 100 to 1000 nM; with HTT mRNA [3] it was 100 to 1000 nM; in the experiment on MYB mRNA [4], under 100 nM; in the experiment on MYB mRNA [5] it was under 100 nM. Besides, the GI50 in experiment [2] is 100 to 1000 nM.

Take `CN[C@H]1CCN(c2ccc(C(=O)Nc3cc(F)c4nn(C)cc4c3)c3nc(OC)sc23)C1` [Compound 748, N-(7-fluoro-2-methyl-indazol-5-yl)-2-methoxy-7-[(3S)-3-(methylamino)pyrrolidin-1-yl]-1,3-benzothiazole-4-carboxamide]: the AC50 was 100 to 1000 nM with HTT mRNA [1] and under 100 nM in the experiment with MYB mRNA [5]. Also, the IC50 with HTT mRNA [1] is 1000 to 10000 nM; with HTT mRNA [3], 1000 to 10000 nM; with MYB mRNA [4], under 100 nM; in the experiment with MYB mRNA [5], under 100 nM. Moreover, the GI50 in experiment [2] lay within 100 to 1000 nM.

For `CNC1CN(c2ccc(C(=O)Nc3cc(F)c4nn(C)cc4c3)c3nc(OC)sc23)C1` [Compound 749, N-(7-fluoro-2-methyl-indazol-5-yl)-2-methoxy-7-[3-(methylamino)azetidin-1-yl]-1,3-benzothiazole-4-carboxamide], the AC50 in the experiment on HTT mRNA [1] and in the experiment with MYB mRNA [5] was 100 to 1000 nM throughout. Moreover, the IC50 was 100 to 1000 nM in the experiment on HTT mRNA [1], 100 to 1000 nM in the experiment on HTT mRNA [3], under 100 nM in the experiment with MYB mRNA [4] and under 100 nM with MYB mRNA [5]. For the same compound, the GI50 in experiment [2] lay within 100 to 1000 nM.
